Laboratory results reported in US20260283205A1, “ACYLATED DIHYDROCHALCONES, METHODS OF PRODUCTION AND USES THEREOF” (SYMRISE AG, priority 2023, published 2026).

Assays:
[1] = tested on: panel of 20 trained panellists; assay: Intrinsic sweetness: concentration in water equally sweet as a 1.5% sucrose solution; format: in vivo; conditions: no significant difference (p<0.05) to 1.5% sucrose
Procedure: Compounds 9, 41, 57, 73 and 89 were provided as described in Example 3 and purified to >95% with preparative chromatography. The obtained compounds were used for sensory evaluations.
The intrinsic sweetness of the compounds was determined by a panel of 20 trained panellists. The intrinsic sweetness of a compound is determined by evaluating the sweetness of the compound at different concentrations in water against a 1.5% sucrose solution.
A mixture of butanoylated HG and a mixture of pentanoylated HG were provided as described in Example 3.
The intrinsic sweetness was determined as described in Example 4. As shown in the table, the concentrations of the acylated compounds, which represent equal sweetness as the 1.5% sucrose solution, are approximately ⅕ to ⅛ of the required concentration of HG (non-acylated). Thus, acylation of HG provides a strong increase of the intrinsic sweetness.

trained flavourist panel = assay: Sensory profile (impact, intensity, mouthfeel, lingering sweetness) of 5% sucrose solution with added compound; format: in vivo; conditions: for Lingering sweetness / Impact / Intensity / Mouthfeel: 5% sucrose solution (A1) + HG 50 ppm, compound 9 15 ppm, 41 5 ppm, 57 3 ppm, 73 5 ppm, 89 5 ppm; for Lingering sweetness: sucrose alone scores 1; for Impact: sucrose alone scores 3; for Intensity / Mouthfeel: sucrose alone scores 4
Procedure: A 5% sucrose solution was prepared. Compounds 9, 41, 57, 73 and 89 were provided as described in Example 3 and purified to >95% with preparative chromatography.
The sensory profile of the sucrose solution (control) and the sucrose solution including HG (control), compounds 9, 41, 57, 73 or 89 was determined by a trained flavourist panel comparing the impact, intensity and mouthfeel.

[2] = tested on: trained sensory panel (n=20); assay: Paired comparison tests (Duo test): sweetness increase of 5% sucrose solution in water; format: in vivo; parameters: unit not given here; conditions: dosage HG 50, compound 9 10, 41 5, 57 3, 73 5, 89 5 mg/kg
Procedure: The sensory impact of the compounds 9, 41, 57, 73 and 89 on a 5% sucrose solution in water was analysed by a trained sensory panel (n=20) using a series of paired comparison tests (Duo test). The samples were coded and randomized.

[3] = tested on: panel of five flavorists (n=5); assay: Taste descriptors (scale 0-9) of sugar base with sweet tasting / sweet taste modulating substances, without (A) and with (B) compound 41 or 57; format: in vivo; conditions: for Lingering sweetness (0-9), Δ (B-A) / Mouthfeel (0-9), Δ (B-A) / Onset sweetness (0-9), Δ (B-A) / Overall sweetness (0-9), Δ (B-A) / Mouthfeel (0-9), sample A / Lingering sweetness (0-9), sample A / Onset sweetness (0-9), sample A / Overall sweetness (0-9), sample A: scale 0-9; for Mouthfeel (0-9), sample A / Lingering sweetness (0-9), sample A / Onset sweetness (0-9), sample A / Overall sweetness (0-9), sample A: n=5; for Onset sweetness (0-9), A / Overall sweetness (0-9), A: samples (A): sugar base (5% sucrose+0.1% citric acid) + PH 25, HT 12, HC 50, RS 75, LHG 20, PD 3 or SG 60 mg/kg, without compound 41; for Onset sweetness (0-9), A: base alone 2.0; for Overall sweetness (0-9), A: base alone 3.0
Procedure: A sugar base (5% sucrose+0.1% citric acid) was provided. Further, the sweet tasting substances RS (20% Rubusoside), SG (90% steviol oligoglucosides), HC (8% Hesperetin dihydrochalcone), LHG (52% mogroside V) and the sweet taste modulating substances PD (>95% Phyllodulcin), HT (>85% Hesperetin) and PH (>98% Phloretin) were provided and added to the sugar base to produce different samples (A).
A dose of 2 mg/kg compound 41 or, respectively, 1.2 mg/kg compound 57 was added to the samples to obtain samples (B).
Different taste descriptors were compared between the respective samples (A) and (B) by a panel of five flavorists (n=5) using a scale of 0-9.
The panelists were asked to neutralize with tap water between each sample and the intensity of the descriptors of each sample were defined before tasting the next sample. The tasting of each RS, SG, HC, LHG, PD, HT or PH (samples (A)) were followed by the samples with added RS, SG, HC, LHG, PD, HT or PH+compound (41 or 57) (samples (B)) with each being compared to the intensities of the base.

[4] = tested on: panel of five flavorists (n=5); assay: Sweet taste modulation in lemonade bases with reduced sugar content, descriptor intensities 0-9; format: in vivo; conditions: 5 mg/kg compound 41 or 3 mg/kg compound 57, intensity 0-9
Procedure: A dose of 5 mg/kg compound 41 or, respectively, 3 mg/kg compound 57 were applied to different sugar reduced lemonade bases to restore the overall and sweet taste of the respective matrix with reduced sugar content. Different descriptors were determined by a panel of five flavorists (n=5) and given as intensities from 0-9.
The lemonade bases were “full sugar”, “sugar reduced”, “Stevia Hybride”, “Sugar free base Suc/Ace K” and “Sugar free base Asp/Ace K” with the following recipes: […]

[5] = cited from earlier work
[6] = difference between sample B (+2 mg/kg compound 41) and sample A
[7] = lemonade base "Sugar free base Asp/Ace K"
[8] = lemonade base "Sugar free base Suc/Ace K"
[9] = difference between sample B (+1.2 mg/kg compound 57) and sample A
[10] = compound 41 series, sample A: sugar base (5% sucrose+0.1% citric acid) + sample substance alone at the listed dose (PH 25, HT 12, HC 50, RS 75, LHG 20, PD 3, SG 60 mg/kg)
[11] = compound 41 series, sample A: sugar base + sample substance alone at the listed dose
[12] = compound 57 series, sample A: sugar base + sample substance alone at the listed dose

SMILES | Concentration of equal sweetness as 1.5% sucrose control [1] [mg/kg] | Lingering sweetness (trained flavourist panel) | Impact (trained flavourist panel) | Intensity (trained flavourist panel) | Mouthfeel (trained flavourist panel) | Increase of sweetness [2] | Lingering sweetness (0-9), Δ (B-A) [3, 6] | Mouthfeel (0-9), Δ (B-A) [3, 6] | Lingering sweetness (0-9), Δ (B-A) [3, 9] | Mouthfeel (0-9), Δ (B-A) [3, 9] | Onset sweetness (0-9), Δ (B-A) [3, 9] | Overall sweetness (0-9), Δ (B-A) [3, 9] | Mouthfeel (0-9), sample A [3, 10] | Lingering sweetness (0-9), sample A [3, 11] | Lingering sweetness (0-9), sample A [3, 12] | Mouthfeel (0-9), sample A [3, 12] | Onset sweetness (0-9), sample A [3, 12] | Overall sweetness (0-9), sample A [3, 12] | Onset sweetness (0-9), A [3] | Overall sweetness (0-9), A [3] | further results
COc1ccc(CCC(=O)c2c(O)cc(O[C@@H]3O[C@H](COC(C)=O)[C@@H](O)[C@H](O)[C@H]3O)cc2O)cc1O [Compound 9, 6″-O-Acetyl-HG] | 15 | 2 | 3 | 4-5 | 4-5 | 33.1 | – | – | – | – | – | – | – | – | – | – | – | – | – | – | –
CCCC(=O)OC[C@H]1O[C@@H](Oc2cc(O)c(C(=O)CCc3ccc(OC)c(O)c3)c(O)c2)[C@H](O)[C@@H](O)[C@@H]1O [Compound 41, 6″-O-Butanoyl-HG] | 5 | 2-3 | 4-5 | 5-6 | 5 | 24.4 | 1.0 | 1.0 | – | – | – | – | – | – | – | – | – | – | – | – | Lingering sweetness ([4]; lemonade base "Stevia Hybrid"): 1; Mouthfeel ([4]; lemonade base "Stevia Hybrid"): 4.5; Onset ([4]; lemonade base "Stevia Hybrid"): 4; Overall sweetness ([4]; lemonade base "Stevia Hybrid"): 5.5; Lingering sweetness [4, 7]: 2.5; Mouthfeel [4, 7]: 3.5; Onset [4, 7]: 4; Overall sweetness [4, 7]: 5; Lingering sweetness [4, 8]: 3; Mouthfeel [4, 8]: 2; Onset [4, 8]: 2.5; Overall sweetness [4, 8]: 4.5; Lingering sweetness ([4]; lemonade base "Sugar reduced"): 0.5; Mouthfeel ([4]; lemonade base "Sugar reduced"): 3.5; Onset ([4]; lemonade base "Sugar reduced"): 4; Overall sweetness ([4]; lemonade base "Sugar reduced"): 4.5
CCCCC(=O)OC[C@H]1O[C@@H](Oc2cc(O)c(C(=O)CCc3ccc(OC)c(O)c3)c(O)c2)[C@H](O)[C@@H](O)[C@@H]1O [Compound 57, 6″-O-Pentanoyl-HG] | 3 | 3 | 4-5 | 5-6 | 5 | 25.2 | – | – | 1.0 | 0.5 | 0.5 | 1.0 | – | – | – | – | – | – | – | – | Lingering sweetness ([4]; lemonade base "Stevia Hybrid"): 2.5; Mouthfeel ([4]; lemonade base "Stevia Hybrid"): 5; Onset ([4]; lemonade base "Stevia Hybrid"): 4; Overall sweetness ([4]; lemonade base "Stevia Hybrid"): 6; Lingering sweetness [4, 7]: 3.5; Mouthfeel [4, 7]: 3.5; Onset [4, 7]: 3.5; Overall sweetness [4, 7]: 5; Lingering sweetness [4, 8]: 4; Mouthfeel [4, 8]: 2.5; Onset [4, 8]: 3; Overall sweetness [4, 8]: 5; Lingering sweetness ([4]; lemonade base "Sugar reduced"): 2; Mouthfeel ([4]; lemonade base "Sugar reduced"): 4; Onset ([4]; lemonade base "Sugar reduced"): 4; Overall sweetness ([4]; lemonade base "Sugar reduced"): 4.5
CCCCCC(=O)OC[C@H]1O[C@@H](Oc2cc(O)c(C(=O)CCc3ccc(OC)c(O)c3)c(O)c2)[C@H](O)[C@@H](O)[C@@H]1O [Compound 73, 6″-O-Hexanoyl-HG] | 5 | 3-4 | 4-5 | 6-7 | 5 | 23.1 | – | – | – | – | – | – | – | – | – | – | – | – | – | – | –
CCCCCCC(=O)OC[C@H]1O[C@@H](Oc2cc(O)c(C(=O)CCc3ccc(OC)c(O)c3)c(O)c2)[C@H](O)[C@@H](O)[C@@H]1O [Compound 89, 6″-O-Heptanoyl-HG] | 5 | 3-4 | 4-5 | 6-7 | 5 | 27.7 | – | – | – | – | – | – | – | – | – | – | – | – | – | – | –
COc1ccc(CCC(=O)c2c(O)cc(O[C@H]3O[C@@H](CO)[C@H](O)[C@@H](O)[C@@H]3O)cc2O)cc1O [HG, hesperetin dihydrochalcone-4′-O-β-d-glucoside, reference compound] | 50 | 2 | 4 | 5 | 4-5 | 34.6 | – | – | – | – | – | – | – | – | – | – | – | – | – | – | effect on impact, intensity and mouthfeel of the sucrose solution (trained flavourist panel; 5% sucrose solution): increases the impact, intensity and mouthfeel; sweet taste of HG in water ([5]; 5 mg/kg HG in water): does not taste sweet; isosweet sucrose concentration ([5]; 10 mg/kg HG in water): 0.5%; isosweet sucrose solution concentration ([5]; 20 mg/kg HG in water): 1%
COc1ccc([C@@H]2CC(=O)c3c(O)cc(O)cc3O2)cc1O [HT, Hesperetin] | – | – | – | – | – | – | 1.0 | 0.5 | 2.0 | 0.5 | 1.0 | 1.5 | 3.5 | 0.0 | 0.0 | 3.5 | 2.5 | 3.5 | 2.5 | 3.5 | –
COc1ccc([C@H]2Cc3cccc(O)c3C(=O)O2)cc1O [PD, Phyllodulcin] | – | – | – | – | – | – | 1.0 | 0.5 | 0.5 | 1.0 | 0.5 | 1.0 | 4.0 | 1.0 | 1.0 | 3.5 | 2.5 | 4.0 | 2.5 | 4.0 | –
O=C(CCc1ccc(O)cc1)c1c(O)cc(O)cc1O [PH, Phloretin] | – | – | – | – | – | – | 1.0 | 0.5 | 1.5 | 0.5 | 0.5 | 1.0 | 4.0 | 0.0 | 0.0 | 3.5 | 2.5 | 3.5 | 3.0 | 4.0 | –
